According to patent US20260035364A1, “BICYCLIC TETRAHYDROTHIAZEPINE DERIVATIVES” (Hoffmann-La Roche Inc., priority 2022, published 2026):
Like-named read-outs stand apart in the source and are kept apart here.

How the values were obtained:
[1] = system: primary human T-cells; test: IL2 secretion measurements in CD3-stimulated T-cells; assay type: cell-based; settings: CD3 condition; for Emax IL2 (% activation) / Emax: IL2 after 24 hours, 20 μM reference compound A1 = 100%; for EC50: IL2 secretion after 24 hours, read-out: Tcell IL2 CD3 EC50; for Emax: read-out: Emax IL2 (% activation)
Procedure, shortened: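 Expanded primary human T-cells (100k/well) were stimulated on CD3 antibody-coated or PBS-coated plates with compounds in 5–6 point dose response from 20 or 10 μM top final (dilution factor 3.333, 0.2% DMSO final). IL2 in 24 h supernatants was measured by ProQuantum immunoassay or ELISA, normalized to DMSO (0%) and 20 μM reference compound A1 (100%) to fit EC50 and Emax.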

[2] = target: DGKalpha (Homo sapiens, UniProt P23743); test: In vitro DGK inhibition assay (ADP-Glo, liposomes), DGKalpha; assay type: biochemical; design: hDGKalpha(1-735)-N-His; His (N); made in house; host or cells: Sf21 insect cells (baculovirus); settings: 4 nM DGK α, 25 μM ATP, 125 uM DLG in liposomes, 1 hour reaction
Procedure, shortened: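 Full-length human DGKα (4 nM) or DGKζ (2 nM) from Sf21 cells, with DLG substrate at 125 uM in PS/PC liposomes and ATP at 25 μM (α) or 50 μM (ζ); 1 h reaction. ADP formed read by ADP-Glo luminescence; compounds 11-point, 1:3 dilutions from 10 mM, 2% DMSO final.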

DGKalpha, sequence (P23743 whole entry): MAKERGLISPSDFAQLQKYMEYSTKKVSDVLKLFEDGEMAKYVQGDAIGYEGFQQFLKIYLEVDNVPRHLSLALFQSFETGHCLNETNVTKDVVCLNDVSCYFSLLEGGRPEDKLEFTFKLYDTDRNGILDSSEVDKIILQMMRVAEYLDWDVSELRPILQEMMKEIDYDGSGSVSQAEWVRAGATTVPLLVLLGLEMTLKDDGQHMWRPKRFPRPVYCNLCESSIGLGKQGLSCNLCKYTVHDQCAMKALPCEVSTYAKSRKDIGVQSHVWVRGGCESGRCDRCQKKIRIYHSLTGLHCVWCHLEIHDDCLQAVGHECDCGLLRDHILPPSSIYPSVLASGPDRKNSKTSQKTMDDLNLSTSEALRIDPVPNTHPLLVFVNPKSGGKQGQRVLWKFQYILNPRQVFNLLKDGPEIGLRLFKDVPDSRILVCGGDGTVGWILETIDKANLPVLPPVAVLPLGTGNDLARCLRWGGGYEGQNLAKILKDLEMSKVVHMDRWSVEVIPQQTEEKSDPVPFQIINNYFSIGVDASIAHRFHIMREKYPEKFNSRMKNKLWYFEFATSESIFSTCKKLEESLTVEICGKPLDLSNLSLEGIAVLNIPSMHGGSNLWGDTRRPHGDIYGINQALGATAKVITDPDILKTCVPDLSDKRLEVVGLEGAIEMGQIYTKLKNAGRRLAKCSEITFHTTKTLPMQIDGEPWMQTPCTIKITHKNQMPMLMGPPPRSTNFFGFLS

Structure (SMILES) | EC50 ([1]; Homo sapiens, T-cell, 24 h) [nM] | IC50 [2] [nM] | EC50 [1] [nM] | Emax IL2 (% activation) [1] [%] | Emax ([1]; Homo sapiens, T-cell, 24 h) [%]
COc1cc(Cl)cc(Oc2ccc(CN3C(=O)[C@@H](N)CS(=O)(=O)c4ccc(-c5nnc(C(C)(C)S(C)(=O)=O)o5)cc43)cc2)c1 [Example 41, (3R)-3-amino-5-[[4-(3-chloro-5-methoxy-phenoxy)phenyl]methyl]-7-[5-(1-methyl-1-methylsulfonyl-ethyl)-1,3,4-oxadiazol-2-yl]-1,1-dioxo-2,3-dihydro-1λ6,5-benzothiazepin-4-one] | 1460 | 41000 |  |  | 115
Cc1cccc(Oc2ccc(CN3C(=O)[C@@H](N)CS(=O)(=O)c4ccc(-c5nnc(C(C)(C)S(C)(=O)=O)o5)cc43)cc2)c1 [Example 31] | 745 | 1780 |  |  | 176
CC(C)(c1nnc(-c2ccc3c(c2)N(Cc2ccc(Oc4cccc(OC(F)(F)F)c4)cc2)C(=O)[C@@H](N)CS3(=O)=O)o1)S(C)(=O)=O [Example 40, (3R)-3-amino-7-[5-(1-methyl-1-methylsulfonyl-ethyl)-1,3,4-oxadiazol-2-yl]-1,1-dioxo-5-[[4-[3-(trifluoromethoxy)phenoxy]phenyl]methyl]-2,3-dihydro-126,5-benzothiazepin-4-one] | 801 | 1970 |  |  | 196
CC(C)(c1nnc(-c2ccc3c(c2)N(Cc2ccc(OCC(F)(F)F)cc2)C(=O)[C@@H](N)CS3(=O)=O)o1)S(C)(=O)=O [Example 6, (3R)-3-amino-7-[5-(1-methyl-1-methylsulfonyl-ethyl)-1,3,4-oxadiazol-2-yl]-1,1-dioxo-5-[[4-(2,2,2-trifluoroethoxy)phenyl]methyl]-2,3-dihydro-1λ6,5-benzothiazepin-4-one] | 2660 | 1780 |  |  | 54
CC(C)(c1nnc(-c2ccc3c(c2)N(Cc2ccc(OC4CCCC4)cc2)C(=O)[C@@H](N)CS3(=O)=O)o1)S(C)(=O)=O [Example 16, (3R)-3-amino-5-[[4-(cyclopentoxy)phenyl]methyl]-7-[5-(1-methyl-1-methylsulfonyl-ethyl)-1,3,4-oxadiazol-2-yl]-1,1-dioxo-2,3-dihydro-1λ6,5-benzothiazepin-4-one] | 6220 | 1510 |  |  | 61
CC(C)(c1nnc(-c2ccc3c(c2)N(Cc2ccc(Oc4cccc(Cl)c4)cc2)C(=O)[C@@H](N)CS3(=O)=O)o1)S(C)(=O)=O [Example 34, (3R)-3-amino-5-[[4-(3-chlorophenoxy)phenyl]methyl]-7-[5-(1-methyl-1-methylsulfonyl-ethyl)-1,3,4-oxadiazol-2-yl]-1,1-dioxo-2,3-dihydro-1λ6,5-benzothiazepin-4-one] | 1000 | 20300 |  |  | 89
CC(C)(c1nnc(-c2cc3c(cc2F)S(=O)(=O)C[C@H](N)C(=O)N3Cc2ccc(-c3ccc(C(F)(F)F)cc3)cc2)o1)S(C)(=O)=O [Example 35, (3R)-3-amino-8-fluoro-7-[5-(1-methyl-1-methylsulfonyl-ethyl)-1,3,4-oxadiazol-2-yl]-1,1-dioxo-5-[[4-[4-(trifluoromethyl)phenyl]phenyl]methyl]-2,3-dihydro-1λ6,5-benzothiazepin-4-one] | 43 | 1220 |  |  | 239
CC(C)(c1nnc(-c2cc3c(cc2F)S(=O)(=O)C[C@H](N)C(=O)N3Cc2ccc(OCC(F)(F)F)cc2)o1)S(C)(=O)=O [Example 24, (3R)-3-amino-8-fluoro-7-[5-(1-methyl-1-methylsulfonyl-ethyl)-1,3,4-oxadiazol-2-yl]-1,1-dioxo-5-[[4-(2,2,2-trifluoroethoxy)phenyl]methyl]-2,3-dihydro-1λ6,5-benzothiazepin-4-one] | 1060 | 431 |  |  | 24
CC(C)(c1nnc(-c2ccc3c(c2)N(Cc2ccc(-c4ccc(C(F)(F)F)cn4)cc2)C(=O)[C@@H](N)CS3(=O)=O)o1)S(C)(=O)=O [Example 10] | 1770 | 1020 |  |  | 174

More lines, main results first:

EC50 ([1]; Homo sapiens, T-cell, 24 h) [nM] | IC50 [2] [nM] | EC50 [1] [nM] | Structure (SMILES) | Emax IL2 (% activation) [1] [%] | Emax ([1]; Homo sapiens, T-cell, 24 h) [%]
897 | 2290 |  | CC(C)(c1nc(-c2cc3c(cc2F)[S+]([O-])C[C@H](N)C(=O)N3Cc2ccc(Oc3ccccc3)cc2)no1)S(C)(=O)=O (stereo partly drawn) [Example 51, (3R)-3-amino-8-fluoro-7-[5-(1-methyl-1-methylsulfonyl-ethyl)-1,2,4-oxadiazol-3-yl]-1-oxo-5-[(4-phenoxyphenyl)methyl]-2,3-dihydro-1λ4,5-benzothiazepin-4-one] | 101 | 
1370 | 1100 |  | CC(C)(c1nnc(-c2ccc3c(c2)N(Cc2ccc(Oc4cccc(OC(F)F)c4)cc2)C(=O)[C@@H](N)CS3(=O)=O)o1)S(C)(=O)=O [Example 47, (3R)-3-amino-5-[[4-[3-(difluoromethoxy)phenoxy]phenyl]methyl]-7-[5-(1-methyl-1-methylsulfonyl-ethyl)-1,3,4-oxadiazol-2-yl]-1,1-dioxo-2,3-dihydro-1λ6,5-benzothiazepin-4-one] |  | 135
 | 1550 | 1170 | CC(C)(c1nc(-c2cc3c(cc2F)[S+]([O-])C[C@H](N)C(=O)N3Cc2ccc(Oc3ccccc3)cc2)no1)S(C)(=O)=O (stereo partly drawn) [Example 52, (3R)-3-amino-8-fluoro-7-[5-(1-methyl-1-methylsulfonyl-ethyl)-1,2,4-oxadiazol-3-yl]-1-oxo-5-[(4-phenoxyphenyl)methyl]-2,3-dihydro-1λ4,5-benzothiazepin-4-one] | 253 | 
4210 | 4770 |  | CC(C)(c1nnc(-c2ccc3c(c2)N(Cc2ccc(Oc4ccccc4)cc2)C(=O)[C@@H](N)CS3(=O)=O)o1)S(=O)(=O)C1CC1 [Example 61, (3R)-3-amino-7-[5-(1-cyclopropylsulfonyl-1-methyl-ethyl)-1,3,4-oxadiazol-2-yl]-1,1-dioxo-5-[(4-phenoxyphenyl)methyl]-2,3-dihydro-1λ6,5-benzothiazepin-4-one] |  | 89
9140 | 27200 |  | CC(C)(c1nnc(-c2ccc3c(c2)N(Cc2ccc(-c4ccc(C(F)(F)F)cc4)nc2)C(=O)[C@@H](N)CS3(=O)=O)o1)S(C)(=O)=O [Example 57, (3R)-3-amino-7-[5-(1-methyl-1-methylsulfonyl-ethyl)-1,3,4-oxadiazol-2-yl]-1,1-dioxo-5-[[6-[4-(trifluoromethyl)phenyl]-3-pyridyl]methyl]-2,3-dihydro-1λ6,5-benzothiazepin-4-one] |  | 53
497 | 175 |  | CC(C)(c1nnc(-c2ccc3c(c2)N(Cc2ccc(-c4ccc(OC(F)(F)F)cn4)cc2)C(=O)[C@@H](N)CS3(=O)=O)o1)S(C)(=O)=O [Example 69, (3R)-3-amino-1,1-diketo-7-[5-(1-mesyl-1-methyl-ethyl)-1,3,4-oxadiazol-2-yl]-5-[4-[5-(trifluoromethoxy)-2-pyridyl]benzyl]-2,3-dihydro-1λ6,5-benzothiazepin-4-one] |  | 97
195 | 818 |  | CC(C)(c1nc(-c2cc3c(cc2F)S(=O)(=O)C[C@H](N)C(=O)N3Cc2ccc(-c3noc(C4CC4)n3)cc2)no1)S(C)(=O)=O [Example 45, (3R)-3-amino-5-[[4-(5-cyclopropyl-1,2,4-oxadiazol-3-yl)phenyl]methyl]-8-fluoro-7-[5-(1-methyl-1-methylsulfonyl-ethyl)-1,2,4-oxadiazol-3-yl]-1,1-dioxo-2,3-dihydro-1λ6,5-benzothiazepin-4-one] |  | 190
131 | 640 |  | CC(C)(c1nc(-c2cc3c(cc2F)S(=O)(=O)C[C@H](N)C(=O)N3Cc2ccc(Cl)cc2)no1)S(C)(=O)=O [Example 43, (3R)-3-amino-5-[(4-chlorophenyl)methyl]-8-fluoro-7-[5-(1-methyl-1-methylsulfonyl-ethyl)-1,2,4-oxadiazol-3-yl]-1,1-dioxo-2,3-dihydro-1λ6,5-benzothiazepin-4-one] |  | 163
4180 | 18300 |  | CS(=O)(=O)Cn1nnnc1-c1cc2c(cc1F)S(=O)(=O)C[C@H](N)C(=O)N2Cc1ccc(Oc2ccccc2)cc1 [Example 55, (3R)-3-amino-8-fluoro-7-[1-(methylsulfonyl-methyl)tetrazol-5-yl]-1,1-dioxo-5-[(4-phenoxyphenyl)methyl]-2,3-dihydro-1λ6,5-benzothiazepin-4-one] |  | 85
325 | 683 |  | CC(C)(c1nc(-c2cc3c(cc2F)S(=O)(=O)C[C@H](N)C(=O)N3Cc2ccc(OC(F)(F)F)cc2)no1)S(C)(=O)=O [Example 44, (3R)-3-amino-8-fluoro-7-[5-(1-methyl-1-methylsulfonyl-ethyl)-1,2,4-oxadiazol-3-yl]-1,1-dioxo-5-[[4-(trifluoromethoxy)phenyl]methyl]-2,3-dihydro-1λ6,5-benzothiazepin-4-one] |  | 192
4360 | 8050 |  | CC(C)(c1nc(-c2cc3c(cc2F)S(=O)(=O)C[C@H](N)C(=O)N3Cc2ccc(C3CCOCC3)cc2)no1)S(C)(=O)=O [Example 53, (3R)-3-amino-8-fluoro-7-[5-(1-methyl-1-methylsulfonyl-ethyl)-1,2,4-oxadiazol-3-yl]-1,1-dioxo-5-[(4-tetrahydropyran-4-ylphenyl)methyl]-2,3-dihydro-1λ6,5-benzothiazepin-4-one] |  | 96
